Assay results published in paper PMC8318231, “Rate-of-Kill (RoK) assays to triage large compound sets for Chagas disease drug discovery: Application to GSK Chagas Box” (PLoS Neglected Tropical Diseases, 2021).

System: T. cruzi intracellular amastigotes in H9c2 cells
Test: Rate-of-Kill (RoK) high-content imaging assay, amastigotes per cell (AM/CELL) and curve descriptors
Format: cell-based, Trypanosoma cruzi
Design: key to ME_24h / ME_48h / ME_72h: % reduction in parasite burden (cidal response); t50pct_MCC50 / t50pct_Cmax: unit not given here
Conditions: for ME_24h: 24h; for ME_48h: 48h; for ME_72h: 72h; for tlag_Cmax / t50pct_Cmax / t50%_Cmax: at Cmax; for ME_24h (%): maximum effect at 24 h; for ME_24h (%) / ME_48h (%) / ME_72h (%): RoK assay; for ME_48h (%): maximum effect at 48 h; for ME_72h (%): maximum effect at 72 h; for ME 24h (maximum effect at 24 hours, intracellular amastigotes): maximum percentage of parasite burden reduction reached by any concentration
Procedure, shortened: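 H9c2 cardiomyocytes infected with T. cruzi trypomastigotes (MOI 8, 18 h), then compounds tested at 5 μM single shot or 11-point 1/3 dilution from 50 μM. DRAQ5-stained nuclei imaged over a time course. Amastigotes per cell normalised to infected cells at 4 h (0%) and non-infected cells (100%).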

SMILES	ME_24h (figure 5)	ME_48h (figure 5)	ME_72h (figure 5)	MCCE (RoK curve descriptor)	tlag_Cmax	t50pct_Cmax (figure 5)	tlag_Cmax (figure 5)	t50pct_MCC50 (at MCC50, figure 5)	tlag_MCC50 (at MCC50, figure 5)	MCC50 (figure 5)	MCCE (figure 5)	ME_24h (%)	ME_48h (%)	ME_72h (%)	ME 24h (maximum effect at 24 hours, intracellular amastigotes)	AM/CELL NORM (Time 4, sheet figure 4 A)	AM/CELL NORM (Time 24, sheet figure 4 A)	AM/CELL NORM (Time 48, sheet figure 4 A)	AM/CELL NORM (Time 72, sheet figure 4 A)	t50%_MCC50 (at MCC50)	further results
NC(=O)c1ccccc1Nc1nc(NC2CCCCC2)nc2[nH]ccc12 [TCMDC-143314]	-235.508	-846.189	-1441.39	0.6 µM	72.0 h	72	72	72	72	50 µM	0.6173	-235.5%	-846.2%	-1441.4%	91.926%						AM/CELL NORM (Time 4, figure 4 A): -0.353; AM/CELL NORM (Time 24, figure 4 A): -235.508; AM/CELL NORM (Time 48, figure 4 A): -898.709; AM/CELL NORM (Time 72, figure 4 A): -1946.1
COc1ccc(-c2nc3ncccc3o2)cc1NC(=O)c1cccs1 [TCMDC-143137]	22.8714	76.8526	102.262	5.6 µM	4.0 h	48	4	48	4		5.556	22.9%	76.9%	102.3%	22.8714%	-5.518	19.5521	76.8526	68.9196	48.0 h	cidality in the RoK assay (in words): not signs of cidality at 24 hours; ME / cidal effect at 72 hours (72 hours): 100%; MCC50 (RoK curve descriptor): 16.7 µM; t50%_Cmax: 48.0 h; tlag_MCC50 (at MCC50): 4.0 h; MCC50 (figure 5, in µM): 16.6667
CS(=O)(=O)c1cccc(-c2cnc(N)c3c(-c4ccc(CO)cc4)csc23)c1.O=C(O)C(F)(F)F [TCMDC-143410]	16.9023	39.285	41.8133	1.2 µM	36.0 h	72	36	72	38		1.235	16.9%	39.3%	41.8%	40.1676%	25.2958	6.562	-1.837	13.104	72.0 h	MCC50 (RoK curve descriptor): 1.9 µM; tlag_MCC50 (at MCC50): 4.0 h; MCC50 (figure 5, in µM): 25.9259
CS(=O)(=O)c1cccc(CNC(=O)c2cncc(N3CCN(c4ccc(F)cc4)CC3)c2)c1.O=C(O)C(F)(F)F.O=C(O)C(F)(F)F.O=C(O)C(F)(F)F [TCMDC-143385]	-140.527	14.5657	58.9567	8.6 µM	24.0 h	72	24	72	48		8.642	-140.5%	14.6%	59.0%	-76.6949%	-2.309	-204.359	18.8519	47.2855	72.0 h	MCC50 (RoK curve descriptor): 1.9 µM; tlag_MCC50 (at MCC50): 24.0 h; MCC50 (figure 5, in µM): 25.9259
O=C1CSC(c2cccnc2)N1c1ccc(Cl)cc1Cl (centres unmarked) [TCMDC-143114]	-4.949	48.1247	74.0117	0.6 µM	24.0 h	72	24	72	24	50 µM	0.6173	-5.0%	48.1%	74.0%	-4.949%	4.621	-4.949	48.1247	74.0117	72.0 h	MCC50 (RoK curve descriptor): 50.0 µM; t50%_Cmax: 72.0 h; tlag_MCC50 (at MCC50): 24.0 h
O=C(NC1C(=O)N(c2ccccc2)C1c1cccnc1)c1ccc(Cl)s1 (centres unmarked) [TCMDC-143324]	-26.8888	-112.607	-10.0757	0.07 µM	72.0 h	72	72	72	72	50 µM	0.06859	-26.9%	-112.6%	-10.1%	-26.8888%	-16.6269	-26.8888	-112.607	-155.468		
COc1ccc2ncc(=O)n(CCN3CCOC(CNCc4ccc(C(F)(F)F)cc4F)C3)c2n1 (centres unmarked) [TCMDC-143384]	-27.6403	-15.9254	-18.8553	0.6 µM	24.0 h	72	24	72	72	50 µM	0.6173	-27.6%	-15.9%	-18.9%	-27.6403%	-15.3138	-27.6403	-15.9254	-18.8553		
CN(Cc1ccc(C(N)=O)cc1)C(c1ccc(F)cc1)c1cccnc1 (centres unmarked) [TCMDC-143504]	-95.1621	-135.708	0.6882	0.6 µM		72	48	72	72	50 µM	0.6173	-95.2%	-135.7%	0.7%	-95.1621%	2.577	-143.385	-163.001	-44.3312		
Clc1ccc(Sc2cnccc2N2CCOCC2)cc1 [TCMDC-143602]	-12.5205	-29.081	15.6088	0.2 µM	72.0 h	72	72	72	72	50 µM	0.2058	-12.5%	-29.1%	15.6%	-12.5205%	3.934	-12.5205	-29.081	-95.1907		
Cn1cc(CN2CCN(c3ccc4c(c3)CCN(C(=O)[C@H]3C[C@@H]3c3ccccc3)CC4)CC2)cn1 [TCMDC-143537]	33.1689	35.5175	52.5957	0.6 µM	4.0 h	72	4	72	24		0.6173	33.2%	35.5%	52.6%	33.1689%	1.751	33.1689	30.0543	50.1418	72.0 h	MCC50 (RoK curve descriptor): 16.7 µM; t50%_Cmax: 72.0 h; tlag_MCC50 (at MCC50): 24.0 h; MCC50 (figure 5, in µM): 16.6667
CCC(=O)Nc1ccc(-c2nc3ccc(Cl)cc3[nH]2)cc1 [TCMDC-143135]	52.1566	46.9478	38.7036	5.6 µM	4.0 h	72	4	24	4		5.556	52.2%	47.0%	38.7%	52.1566%	-141.214	-21.5946	-76.5792	-95.9437	24.0 h	tlag_MCC50 (at MCC50): 4.0 h
CC(CNS(=O)(=O)c1ccc(OC(F)F)cc1)c1ccc(NC(=O)c2ccncc2)cc1 (centres unmarked) [TCMDC-143535]	-92.8433	-11.1799	45.5869	0.2 µM	24.0 h	72	24	72	72	50 µM	0.2058	-92.8%	-11.2%	45.6%	-92.8433%	3.544	-92.8433	-15.4132	37.7082		
